The conditions of data set [1]: Redox Indicators; cited from earlier work.
In data set [2] the test system is M1WT3 cells. Kind of data set: Carbachol stimulation of M1WT3 cells, extracellular acidification rate in a THERMOmax microplate reader (Example 8). It is filed as cell-based. The conditions noted are these: for ΔpH/Sec: mean of triplicate. Here is the method: The M1WT3 cells used for the following experiments were obtained from the American Type Culture Collection (No. CRL 1985). These cells were a line of CHO-K1 cells transfected with the gene for muscarinic receptors in order to provide cells responsive to cholinergic agonists, such as Carbachol. The M1WT3 cells were grown in Ham's F12 medium with 50 μg/ml […] (Geneticin), 10% fetal bovine serum, […], 1.0 mg/L streptomycin and 1000 units/L penicillin (growing medium) under 5% CO2 at 37° C.
To initiate growth, 5×10^4 M1WT3 cell/well (200 μL/well) were sterilely plated in selected individual wells of a flat bottom 96-well microplate. The selected wells were comprised of the inner 60 wells. At least 3 of the inner wells, however, were left without cells to be used as control wells. The entire microplate then was covered with a loosely-fitting plastic cover that allowed gas exchange to the wells and the microplate was incubated at 37° C. for approximately 24 hours to allow cells to attach to bottom of each selected well with cells.
Twelve hours prior to measuring extracellular acidification the growing media was aspirated off with a vacuum system and replaced with 200 μL of starving media (growing media with 1 mg/ml bovine serum albumin in place of the 10% fetal bovine serum) and the cells were again placed under 5% CO2 at 37° C. The microplate was then incubated for 12 hours. Within 30-60 minutes prior to monitoring the rates of extracellular acidification, the starving medium was aspirated off, the wells were rinsed with approximately 200 μL simple indicator medium (Table 2 components) and then filled with 200 μL of simple indicator medium. All media was warmed to 37° C. before addition to the cells.
The light absorbance of the individual wells of the 96-well microplate was read in a THERMOmax™ microplate absorbance reader modified to record the ratio of optical density at two wavelengths (560 nm/420 nm), kinetically at 37° C. for 15 minutes with automix on. The automix feature is described in the Operator's Manual for the THERMOmax™ instrument (Catalog No. 0112-0014) of Molecular Devices Corporation, Menlo Park, Calif. The automix feature provides for uniform mixing of the contents of each well of the multiassay plate for about 5 seconds, followed by measurement of optical density at the first wavelength (in this case 560 nm) in about 5 seconds, followed by a change in interference filter in about 1 second, followed by measurement of optical density at the second wavelength (in this case 420 nm) in about 5 seconds. Thus, all optical density measurements are completed within 11 seconds following termination of the agitation step and the time elapsed for any one well between measuring the optical density at the first and second wavelengths was 6 seconds. This was the minimum time between reading optical density at the first and second wavelengths possible with the THERMOmax™ instrument. Preferably the readings at the first and second wavelengths are made simultaneously.
Additionally, the contents of the microplate wells were not agitated between reading optical density at the first and second wavelengths so that the light scattering effects of the cells tended to be the same for the optical density measurements made at the first and second wavelengths for any one well. […] The reading cycle, with agitation, measuring absorbance at the first wavelength of light, changing the filter, and reading the absorbance at the second wavelength of light, was repeated at the rate of 3 cycles per minute (i.e. every 20 seconds).
At the end of the 15 minutes the reading cycles were stopped, the microplate was removed and the media was quickly aspirated off and replaced with simple indicator media containing a cell-affecting agent, in this case 0 to 300 μM Carbachol. The reading cycles then were repeated, as above, for two consecutive 15 minute data collection periods followed by one final 30 minute data collection period. […]

Data set [3] can be described thus: Apparent pH change with temperature of buffering systems as indicated by phenol red. The conditions noted are these: phenol red pH indicator; 50 mM total buffer; with 1.0M NaCl added. Format: physicochemical.

Structures can show the parent of a compound that is named as a salt. Where two headings read alike, the source gives them in different places.

With `O=C1C(Cl)=CC(=Nc2ccc(O)cc2)C=C1Cl` [2,6-Dichloroindophenol Sodium Salt], in data set [1], the “Potential at pHOa” value is reported as 0.67 Volts.
As for `COc1cc(-c2ccc(N)c(OC)c2)ccc1N.Cl.Cl` [3,3'-Dimethoxybenzidine Dihydrochloride], the “Potential at pHOa” value in data set [1] is given as 0.76 Volts.
Turning to `COc1cc(-c2ccc(N)c(OC)c2)ccc1N` [3,3'-Dimethoxybenzidine], in data set [1], the “Potential at pHOa” value is given as 0.76 Volts.
For the compound `O=S(=O)([O-])c1ccc(Nc2ccccc2)cc1.O=S(=O)([O-])c1ccc(Nc2ccccc2)cc1.[Ba+2]` [Barium Diphenylaminesulfonate], the “Potential at pHOa” value in data set [1] was 0.85 Volts.
`C[N+](C)(C)CCOC(N)=O` [Carbachol]: the “ΔProtons/Cell·Sec minus 0 Carbachol” value in data set [2] (3 μM, First 15 min) came to 1.00E + 07 ΔProtons/Cell·Sec; in data set [2] (3 μM, Last 30 min), 1.44E - 07 ΔProtons/Cell·Sec; in data set [2] (3 μM, Second 15 min), 1.12E - 07 ΔProtons/Cell·Sec; in data set [2] (10 μM, First 15 min), 1.44E + 07 ΔProtons/Cell·Sec; in data set [2] (10 μM, Last 30 min) it was 2.10E - 07 ΔProtons/Cell·Sec; in data set [2] (30 μM, First 15 min), 1.12E + 07 ΔProtons/Cell·Sec. Moreover, the “ΔProtons/Cell·Sec minus 0 Carbachol” value worked out at 1.47E - 07 ΔProtons/Cell·Sec in data set [2] (30 μM, Second 15 min); 6.76E + 06 ΔProtons/Cell·Sec in data set [2] (300 μM, First 15 min); 1.11E - 07 ΔProtons/Cell·Sec in data set [2] (300 μM, Second 15 min). For the same compound, the ΔpH/Sec in data set [2] (3 μM, First 15 min) was determined as 7.1534E - 05 ΔpH/Sec; in data set [2] (3 μM, Last 30 min) it was 5.0490E - 05 ΔpH/Sec; in data set [2] (3 μM, Second 15 min) it was 5.2542E - 05 ΔpH/Sec; in data set [2] (10 μM, First 15 min), 7.5928E - 05 ΔpH/Sec; in data set [2] (10 μM, Last 30 min) it was 5.7103E - 05 ΔpH/Sec; in data set [2] (10 μM, Second 15 min), 5.6378E - 05 ΔpH/Sec. Also, the ΔpH/Sec in data set [2] (30 μM, First 15 min) was 7.2713E - 05 ΔpH/Sec; in data set [2] (30 μM, Last 30 min) it was 5.7641E - 05 ΔpH/Sec; in data set [2] (30 μM, Second 15 min), 5.6101E - 05 ΔpH/Sec; in data set [2] (300 μM, First 15 min), 8.8294E - 05 ΔpH/Sec; in data set [2] (300 μM, Last 30 min) it was 5.2560E - 05 ΔpH/Sec; in data set [2] (300 μM, Second 15 min) it was 5.2420E - 05 ΔpH/Sec. Also, the activation at 3 µM in data set [2] (0.25 h, 3 μM, First 15 min, read-out: % Change compared to pre-Carbachol) was 5.94%; in data set [2] (0.25 h, 3 μM, First 15 min, read-out: % Change compared to pre-Carbachol minus 0 Carbachol) it was 12.6%; in data set [2] (0.5 h, 3 μM, Last 30 min, read-out: % Change compared to pre-Carbachol), -25.2%; in data set [2] (0.5 h, 3 μM, Last 30 min, read-out: % Change compared to pre-Carbachol minus 0 Carbachol), 20%; in data set [2] (0.5 h, 3 μM, Second 15 min, read-out: % Change compared to pre-Carbachol) it was -22.2%; in data set [2] (0.5 h, 3 μM, Second 15 min, read-out: % Change compared to pre-Carbachol minus 0 Carbachol), 15%. For the same compound, the activation at 10 µM in data set [2] (0.25 h, 10 μM, First 15 min, read-out: % Change compared to pre-Carbachol) is 20%; in data set [2] (0.25 h, 10 μM, First 15 min, read-out: % Change compared to pre-Carbachol minus 0 Carbachol), 26.6%; in data set [2] (0.5 h, 10 μM, Last 30 min, read-out: % Change compared to pre-Carbachol), -9.77%; in data set [2] (0.5 h, 10 μM, Last 30 min, read-out: % Change compared to pre-Carbachol minus 0 Carbachol), 35.5%; in data set [2] (0.5 h, 10 μM, Second 15 min, read-out: % Change compared to pre-Carbachol) it was -10.9%; in data set [2] (0.5 h, 10 μM, Second 15 min, read-out: % Change compared to pre-Carbachol minus 0 Carbachol), 26.3%. Moreover, the activation at 30 µM in data set [2] (0.25 h, 30 μM, First 15 min, read-out: % Change compared to pre-Carbachol) is 18.6%; in data set [2] (0.25 h, 30 μM, First 15 min, read-out: % Change compared to pre-Carbachol minus 0 Carbachol) it was 25.3%; in data set [2] (0.5 h, 30 μM, Last 30 min, read-out: % Change compared to pre-Carbachol), -5.63%; in data set [2] (0.5 h, 30 μM, Last 30 min, read-out: % Change compared to pre-Carbachol minus 0 Carbachol) it was 39.6%; in data set [2] (0.5 h, 30 μM, Second 15 min, read-out: % Change compared to pre-Carbachol), -8.46%; in data set [2] (0.5 h, 30 μM, Second 15 min, read-out: % Change compared to pre-Carbachol minus 0 Carbachol), 28.8%. Further, the activation at 300 µM in data set [2] (0.25 h, 300 μM, First 15 min, read-out: % Change compared to pre-Carbachol) is 19.4%; in data set [2] (0.25 h, 300 μM, First 15 min, read-out: % Change compared to pre-Carbachol minus 0 Carbachol), 26.1%; in data set [2] (0.5 h, 300 μM, Last 30 min, read-out: % Change compared to pre-Carbachol), -8.08%; in data set [2] (0.5 h, 300 μM, Last 30 min, read-out: % Change compared to pre-Carbachol minus 0 Carbachol), 37.2%; in data set [2] (0.5 h, 300 μM, Second 15 min, read-out: % Change compared to pre-Carbachol), -8.33%; in data set [2] (0.5 h, 300 μM, Second 15 min, read-out: % Change compared to pre-Carbachol minus 0 Carbachol) it was 28.9%.
Turning to `O=C(O)CC(O)(CC(=O)O)C(=O)O` [Citrate buffer], the “apparent change in pH with change in temperature” value in data set [3] was 8.06 millipH/°C.
Take `O.O.[C-]#N.[C-]#N.[Fe+2].c1cnc2c(c1)ccc1cccnc12.c1cnc2c(c1)ccc1cccnc12` [Dicyanobis(1,10-phenanthroline)Iron]: the “Potential at pHOa” value in data set [1] is 1.41 Volts.
`c1ccc(Nc2ccccc2)cc1` [Diphenylamine]: in data set [1], the “Potential at pHOa” value is reported as 0.76 Volts.
As to `CN(C)c1ccc2nc3ccc(=[N+](C)C)cc-3sc2c1` [Methylene Blue], the “Potential at pHOa” value in data set [1] was 0.53 Volts.
Consider `CN(C)c1ccc(N)cc1` [N,N-Dimethyl-p-phenylanediamine], for which, in data set [1], the “Potential at pHOa” value is 0.76 Volts.
Take `CN(C)c1ccc(N=C2C=CC(=O)C=C2)cc1` [N,N-Dimethylindoaniline]: in data set [1], the “Potential at pHOa” value is listed as 0.22 Volts.
Consider `COc1ccc(Nc2ccc(N)cc2)cc1` [N-(p-Methoxyphenyl)-p-phenylanediamine Hydrochloride], for which, in data set [1], the “Potential at pHOa” value is recorded as 0.71 Volts.
With `O=C(O)c1ccccc1Nc1ccccc1` [N-Phenylanthranilic Acid], the “Potential at pHOa” value in data set [1] is listed as 1.08 Volts.
In the case of `Cc1cc2nc3ccc(N(C)C)cc3nc2cc1N` [Neutral Red], in data set [1], the “Potential at pHOa” value is given as -0.24 Volts.
Consider `CC[N+](CC)=c1ccc2nc3c(cc(N)c4ccccc43)oc-2c1` [Nile Blue A], for which the “Potential at pHOa” value in data set [1] is on record as 0.29 Volts.
Regarding `Nc1ccc2nc3ccc(N)cc3[s+]c2c1` [Thionin], the “Potential at pHOa” value in data set [1] was 0.56 Volts.
On to `O=S(=O)([O-])[O-].[Fe+2].c1cnc2c(c1)ccc1cccnc12.c1cnc2c(c1)ccc1cccnc12.c1cnc2c(c1)ccc1cccnc12` [Tris(1,10-phenanthroline)Iron(R) Sulfate], for which, in data set [1], the “Potential at pHOa” value was 1.14 Volts.
With `CCN=C1C=CC(=C(c2ccc(NCC)c(C)c2)c2ccc(S(=O)(=O)O)cc2S(=O)(=O)O)C=C1C` [Xylene Cyanol FF], the “Potential at pHOa” value in data set [1] is given as 1.00 Volts.
Consider `Cc1cc(-c2ccc(N)c(C)c2)ccc1N` [o-Tolidine], for which, in data set [1], the “Potential at pHOa” value is 0.87 Volts.
With `CCOc1ccc(N=Nc2ccc(N)cc2N)cc1` [p-Ethoxyphenylazo-m-phenylanediamine Monohydrochloride], the “Potential at pHOa” value in data set [1] is given as 0.76 Volts.
As for Brilliant Cresyl Blue, in data set [1], the “Potential at pHOa” value was 0.58 Volts.
Turning to Diphenylaminosulfonic Acid Sodium Salt, in data set [1], the “Potential at pHOa” value is on record as 0.85 Volts.
On to N,N-Diphenylbenzidine, for which, in data set [1], the “Potential at pHOa” value is reported as 0.76 Volts.

(Values after patent US5766875A, “Metabolic monitoring of cells in a microplate reader” (priority 1995, dated 1998).)
